Data published in patent US8309546B2, “Morpholinopurine derivatives” (Daiichi Sankyo Company, Limited, priority 2008, dated 2012).

Key:
[1] = system: Akt (threonine 308) phosphorylation in AN3CA tumor; experiment: Akt phosphorylation inhibition assay in xenograft; format: in vivo, female nude mouse; details: Mus musculus, AN3-CA, oral, 6 hr after dosing
How it was run: (§1)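 AN3CA human endometrial cancer cells grown as subcutaneous xenografts in female nude mice; compound dosed orally at a set concentration, tumors excised after a set time. Tumor lysates at equal protein were western blotted for p-Akt(T308) and p-S6(S235/236). Inhibition (%) = 100−100×(treated/untreated phospho signal).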

[2] = system: human endometrial cancer cell strain AN3CA tumor; experiment: Anti-tumor effect assay using mouse subcutaneous transplantation model; format: in vivo, female nude mouse; details: AN3-CA, oral, tumor weight vs negative control, read-out: Anti-tumor effect (tumor growth inhibition rate); for inhibition in vivo at 5 mg/kg/day / inhibition in vivo at 10 mg/kg/day / inhibition in vivo at 2.5 mg/kg/day: 8 or 5 consecutive days depending on compound
Procedure: A tumor section was prepared from a human endometrial cancer cell strain AN3CA tumor mass formed in a female nude mouse as a subcutaneously transplanted tumor and then a xenograft model was prepared by transplanting the tumor section into female nude mouse. Tumor-bearing mice having an estimated tumor volume (long diameter×short diameter×short diameter/2) of 80 to 200 mm^3 were divided, so that there should be no significant difference in the mean estimated tumor volume and body weight as compared with the negative control group to perform a test. The test compound was orally administered at a predetermined dose for 8 consecutive days. On the following day of the final administration day, tumor-bearing mice were anesthetized and exsanguinated to death and a tumor mass was isolated to measure tumor weight (the compounds of Examples 1, 3, 6, 8, 11, 12, and 14). Furthermore, as a similar test, the test compound was orally administered for 5 consecutive days, animals were sacrificed on the final administration day, and tumor weight was measured (the compounds of Examples 60, 63, 75, 77, 79, 89, 92, 107, 108, 109, 110, and 127).
In all the tests, anti-tumor effect was calculated by the following formula. {1−(tumor weight in compound treatment group/tumor weight in negative control group)}×100

PI3Kα = PI3Kα (Homo sapiens, UniProt P42336); experiment: PI3K kinase activity inhibition assay; format: biochemical; details: Kinase-Glo Plus ATP detection, read-out: IC50 against PI3K
PI3Kα, sequence (P42336 whole entry, species assumed): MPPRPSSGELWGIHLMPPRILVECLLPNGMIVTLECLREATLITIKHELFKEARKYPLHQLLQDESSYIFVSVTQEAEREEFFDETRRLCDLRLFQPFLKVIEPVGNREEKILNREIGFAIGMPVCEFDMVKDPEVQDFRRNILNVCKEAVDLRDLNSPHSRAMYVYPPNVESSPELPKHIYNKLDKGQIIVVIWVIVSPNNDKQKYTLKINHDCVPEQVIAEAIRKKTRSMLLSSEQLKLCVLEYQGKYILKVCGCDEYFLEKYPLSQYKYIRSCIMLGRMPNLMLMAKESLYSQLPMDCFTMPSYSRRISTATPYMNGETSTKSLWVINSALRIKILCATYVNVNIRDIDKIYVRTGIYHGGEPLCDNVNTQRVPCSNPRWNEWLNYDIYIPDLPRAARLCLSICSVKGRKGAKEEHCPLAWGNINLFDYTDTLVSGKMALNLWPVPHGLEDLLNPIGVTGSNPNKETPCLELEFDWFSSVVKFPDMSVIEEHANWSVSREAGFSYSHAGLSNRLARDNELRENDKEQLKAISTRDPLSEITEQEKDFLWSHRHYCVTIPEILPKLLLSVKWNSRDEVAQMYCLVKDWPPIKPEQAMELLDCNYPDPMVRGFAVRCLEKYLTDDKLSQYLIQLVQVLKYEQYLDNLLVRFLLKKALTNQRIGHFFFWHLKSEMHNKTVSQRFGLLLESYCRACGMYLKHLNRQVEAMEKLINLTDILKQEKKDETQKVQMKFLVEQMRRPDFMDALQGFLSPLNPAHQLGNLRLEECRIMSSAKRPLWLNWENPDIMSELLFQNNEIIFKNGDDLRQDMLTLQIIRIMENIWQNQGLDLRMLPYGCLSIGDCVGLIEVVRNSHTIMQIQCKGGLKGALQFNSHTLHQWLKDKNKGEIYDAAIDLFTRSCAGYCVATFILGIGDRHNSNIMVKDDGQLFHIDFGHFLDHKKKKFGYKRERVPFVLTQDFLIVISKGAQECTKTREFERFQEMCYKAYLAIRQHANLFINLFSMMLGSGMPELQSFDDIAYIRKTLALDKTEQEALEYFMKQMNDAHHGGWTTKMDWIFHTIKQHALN
PI3Kα, sequence (P27986 whole entry partner, species assumed): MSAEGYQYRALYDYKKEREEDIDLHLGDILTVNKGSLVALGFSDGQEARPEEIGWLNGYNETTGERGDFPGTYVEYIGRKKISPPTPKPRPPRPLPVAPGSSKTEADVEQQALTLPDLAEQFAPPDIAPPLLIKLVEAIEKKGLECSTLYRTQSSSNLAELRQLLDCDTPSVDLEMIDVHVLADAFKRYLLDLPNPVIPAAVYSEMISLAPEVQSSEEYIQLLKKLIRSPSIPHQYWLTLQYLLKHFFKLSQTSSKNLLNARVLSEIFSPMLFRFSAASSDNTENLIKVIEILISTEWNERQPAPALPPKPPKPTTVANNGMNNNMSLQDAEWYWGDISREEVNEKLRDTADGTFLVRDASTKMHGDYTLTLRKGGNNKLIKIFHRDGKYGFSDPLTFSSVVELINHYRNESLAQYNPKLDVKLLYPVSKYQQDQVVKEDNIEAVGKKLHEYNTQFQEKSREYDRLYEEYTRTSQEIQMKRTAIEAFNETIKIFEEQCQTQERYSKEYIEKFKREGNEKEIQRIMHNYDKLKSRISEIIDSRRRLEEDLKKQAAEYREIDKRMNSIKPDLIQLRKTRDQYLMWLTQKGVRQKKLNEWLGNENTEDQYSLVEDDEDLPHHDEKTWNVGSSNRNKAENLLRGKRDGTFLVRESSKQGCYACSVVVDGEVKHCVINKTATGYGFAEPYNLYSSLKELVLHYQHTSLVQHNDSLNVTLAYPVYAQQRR
How it was run: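 PI3Kα (50 nM solution) was reacted with 30 μM ATP and 45 μM PIP2 solutions, each in HEPES pH 7.4 with MgCl2 and DTT, for 2 h at room temperature. Remaining ATP was measured by Kinase-Glo Plus luminescence, and inhibition was derived from ATP consumed. IC50 was taken from curve fitting of the serial dilutions.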

[3] = system: S6 (serine 235 and 236) phosphorylation in AN3CA tumor; experiment: S6 phosphorylation inhibition assay in xenograft; format: in vivo, female nude mouse; details: Mus musculus, AN3-CA, oral, 6 hr after dosing
How it was run: as §1

IC50 (PI3Kα)	Compound	inhibition at 10 mg/kg [1]	inhibition at 10 mg/kg [3]	further results
< 10 nM	CC[C@H]1CN(c2nc3c(N4CCOCC4)nc(-c4cnc(N)nc4)nc3n2CC(F)(F)F)CCN1C(=O)[C@H](C)O [Example 77, (2S)-1-{(2S)-4-[2-(2-Aminopyrimidin-5-yl)-6-morpholin-4-yl-9-(2,2,2-trifluoroethyl)-9H-purin-8-yl]-2-ethylpiperazin-1-yl}-1-oxopropan-2-ol]	> 60%	> 90%	inhibition in vivo at 3.75 mg/kg/day ([2]; 120 h, 3.75 mg/kg/day, 5 consecutive days): 47%; inhibition in vivo at 15 mg/kg/day ([2]; 120 h, 15 mg/kg/day, 5 consecutive days): 84%
< 10 nM	C[C@H](O)C(=O)N1CCN(c2nc3c(N4CCOCC4)nc(-c4cnc(N)nc4)nc3n2CC(F)(F)F)C[C@@H]1C [Example 109, (2S)-1-{(2S)-4-[2-(2-Aminopyrimidin-5-yl)-6-morpholin-4-yl-9-(2,2,2-trifluoroethyl)-9H-purin-8-yl]-2-methylpiperazin-1-yl}-1-oxopropan-2-ol]	> 60%	> 90%	inhibition in vivo at 1.875 mg/kg/day ([2]; 120 h, 1.875 mg/kg/day, 5 consecutive days): 42%; inhibition in vivo at 7.5 mg/kg/day ([2]; 120 h, 7.5 mg/kg/day, 5 consecutive days): 80%
10 to 20 nM	C[C@H](O)C(=O)N1CCN(c2nc3c(N4CCOCC4)nc(-c4cnc(N)nc4)nc3n2CC2CC2)C[C@H]1C [Example 95, (2S)-1-{(2R)-4-[2-(2-Aminopyrimidin-5-yl)-9-(cyclopropylmethyl)-6-morpholin-4-yl-9H-purin-8-yl]-2-methylpiperazin-1-yl}-1-oxopropan-2-ol]	> 60%	70 to 90%	inhibition in vivo at 5 mg/kg/day [2]: 44%; inhibition in vivo at 10 mg/kg/day [2]: 62%
< 10 nM	CS(=O)(=O)N1CCN(c2nc3c(N4CCOCC4)nc(-c4cnc(N)nc4)nc3n2CC2CC2)CC1 [Example 3, 5-{9-(Cyclopropylmethyl)-8-[4-(methylsulfonyl)piperazin-1-yl]-6-morpholin-4-yl-9H-purin-2-yl}pyrimidin-2-amine]	> 60%	> 90%	inhibition in vivo at 5 mg/kg/day [2]: 75%; inhibition in vivo at 10 mg/kg/day [2]: 86%
< 10 nM	CC[C@@H]1CN(c2nc3c(N4CCOCC4)nc(-c4cnc(N)nc4)nc3n2CC(F)(F)F)CCN1C(=O)[C@H](C)O [Example 79]	> 60%	> 90%	inhibition in vivo at 2.5 mg/kg/day [2]: 27%; inhibition in vivo at 10 mg/kg/day [2]: 59%
< 10 nM	CC(C)Cn1c(N2CCN(C(=O)CO)CC2)nc2c(N3CCOCC3)nc(-c3cnc(N)nc3)nc21 [Example 89, 2-{4-[2-(2-Aminopyrimidin-5-yl)-9-isobutyl-6-morpholin-4-yl-9H-purin-8-yl]piperazin-1-yl}-2-oxoethanol]	> 60%	70 to 90%	inhibition in vivo at 5 mg/kg/day [2]: 56%; inhibition in vivo at 10 mg/kg/day [2]: 69%
< 10 nM	CC(C)Cn1c(N2CCN(C=O)[C@H](C)C2)nc2c(N3CCOCC3)nc(-c3cnc(N)nc3)nc21 [Example 100, (2R)-4-[2-(2-Aminopyrimidin-5-yl)-9-isobutyl-6-morpholin-4-yl-9H-purin-8-yl]-2-methylpiperazine-1-carboaldehyde]	> 60%	> 90%	inhibition in vivo at 2.5 mg/kg/day [2]: 53%; inhibition in vivo at 5 mg/kg/day [2]: 62%
< 10 nM	CC(=O)N1CCN(c2nc3c(N4CCOCC4)nc(-c4cnc(N)nc4)nc3n2CC(F)(F)F)C[C@H]1C [Example 60, 5-{8-[(3R)-4-Acetyl-3-methylpiperazin-1-yl]-6-morpholin-4-yl-9-(2,2,2-trifluoroethyl)-9H-purin-2-yl}pyrimidin-2-amine]	> 60%	> 90%	inhibition in vivo at 1.5 mg/kg/day ([2]; 120 h, 1.5 mg/kg/day, 5 consecutive days): 64%; inhibition in vivo at 6 mg/kg/day ([2]; 120 h, 6 mg/kg/day, 5 consecutive days): 89%
< 10 nM	Nc1ncc(-c2nc(N3CCOCC3)c3nc(N4CCN(C(=O)CO)CC4)n(CC(F)(F)F)c3n2)cn1 [Example 67, 2-{4-[2-(2-Aminopyrimidin-5-yl)-6-morpholin-4-yl-9-(2,2,2-trifluoroethyl)-9H-purin-8-yl]piperazin-1-yl}-2-oxoethanol]	30 to 60%	70 to 90%	–
10 to 20 nM	C[C@@H](O)C(=O)N1CCN(c2nc3c(N4CCOCC4)nc(-c4cnc(N)nc4)nc3n2CC2CC2)C[C@@H]1C [Example 113, (2R)-1-{(2S)-4-[2-(2-Aminopyrimidin-5-yl)-9-(cyclopropylmethyl)-6-morpholin-4-yl-9H-purin-8-yl]-2-methylpiperazin-1-yl}-1-oxopropan-2-ol]	> 60%	> 90%	–
< 10 nM	C[C@@H]1CN(c2nc3c(N4CCOCC4)nc(-c4cnc(N)nc4)nc3n2CC(F)(F)F)CCN1C=O [Example 112, (2R)-4-[2-(2-Aminopyrimidin-5-yl)-6-morpholin-4-yl-9-(2,2,2-trifluoroethyl)-9H-purin-8-yl]-2-methylpiperazine-1-carboaldehyde]	> 60%	> 90%	–
< 10 nM	C[C@H](O)CC(=O)N1CCN(c2nc3c(N4CCOCC4)nc(-c4cnc(N)nc4)nc3n2CC(F)(F)F)CC1 [Example 69, (2S)-4-{4-[2-(2-Aminopyrimidin-5-yl)-6-morpholin-4-yl-9-(2,2,2-trifluoroethyl)-9H-purin-8-yl]piperazin-1-yl}-4-oxobutan-2-ol]	> 60%	> 90%	–
< 10 nM	CNc1ncc(-c2nc(N3CCOCC3)c3nc(N4CCN(S(C)(=O)=O)[C@@H](C)C4)n(CC(F)(F)F)c3n2)cn1 [Example 105, N-Methyl-5-{8-[(3S)-3-methyl-4-(methylsulfonyl)piperazin-1-yl]-6-morpholin-4-yl-9-(2,2,2-trifluoroethyl)-9H-purin-2-yl}pyrimidin-2-amine]	30 to 60%	> 90%	–
< 10 nM	CN(C)C(=O)C(=O)N1CCN(c2nc3c(N4CCOCC4)nc(-c4cnc(N)nc4)nc3n2CC(F)(F)F)CC1 [Example 66, 2-{4-[2-(2-Aminopyrimidin-5-yl)-6-morpholin-4-yl-9-(2,2,2-trifluoroethyl)-9H-purin-8-yl]piperazin-1-yl}-N,N-dimethyl-2-oxoacetamide]	30 to 60%	70 to 90%	–
< 10 nM	CS(=O)(=O)C1CCN(c2nc3c(N4CCOCC4)nc(-c4cnc(N)nc4)nc3n2CC(F)(F)F)CC1 [Example 57, 5-{8-[4-(Methylsulfonyl)piperidin-1-yl]-6-morpholin-4-yl-9-(2,2,2-trifluoroethyl)-9H-purin-2-yl}pyrimidin-2-amine]	30 to 60%	> 90%	–
10 to 20 nM	CC(C)Cn1c(N2CCN(C(=O)C[C@@H](C)O)[C@@H](C)C2)nc2c(N3CCOCC3)nc(-c3cnc(N)nc3)nc21 [Example 83, (2R)-4-{(2S)-4-[2-(2-Aminopyrimidin-5-yl)-9-isobutyl-6-morpholin-4-yl-9H-purin-8-yl]-2-methylpiperazin-1-yl}-4-oxobutan-2-ol]	> 60%	> 90%	–
10 to 20 nM	CS(=O)(=O)N1CCN(c2nc3c(N4CCOCC4)nc(-c4cnc(N)nc4)nc3n2CC(F)F)CC1 [Example 64, 5-{9-(2,2-Difluoro-ethyl)-8-[4-(methylsulfonyl)piperazin-1-yl]-6-morpholin-4-yl-9H-purin-2-yl}pyrimidin-2-amine]	30 to 60%	> 90%	–
< 10 nM	CC(=O)N1CCN(c2nc3c(N4CCOCC4)nc(-c4cnc(N)nc4)nc3n2CC(F)(F)F)CC12CC2 [Example 119, 5-[8-(4-Acetyl-4,7-diazaspiro[2.5]oct-7-yl)-6-morpholin-4-yl-9-(2,2,2-trifluoroethyl)-9H-purin-2-yl]pyrimidin-2-amine]	30 to 60%	> 90%	–
